Reference: patent US9776979B2, “EBI2 modulators” (Sanford-Burnham Medical Research Institute, priority 2013, dated 2017)

The compounds below were run against EBI2 (Homo sapiens, UniProt P32249) (assay: Cell-based luminescent assay (EBI2 modulation)). Conditions: not given.
Procedure, shortened: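 Cells plated overnight at 37° C, then exposed to compound at 4-5 uM final with 80 nM 7a,25-OHC agonist for 60 min at 37° C. Luminescence read after 60 min detection at 25° C in the dark; values normalized to neutral and stimulator controls and plate-pattern corrected.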

Sequence of EBI2 (P32249 whole entry): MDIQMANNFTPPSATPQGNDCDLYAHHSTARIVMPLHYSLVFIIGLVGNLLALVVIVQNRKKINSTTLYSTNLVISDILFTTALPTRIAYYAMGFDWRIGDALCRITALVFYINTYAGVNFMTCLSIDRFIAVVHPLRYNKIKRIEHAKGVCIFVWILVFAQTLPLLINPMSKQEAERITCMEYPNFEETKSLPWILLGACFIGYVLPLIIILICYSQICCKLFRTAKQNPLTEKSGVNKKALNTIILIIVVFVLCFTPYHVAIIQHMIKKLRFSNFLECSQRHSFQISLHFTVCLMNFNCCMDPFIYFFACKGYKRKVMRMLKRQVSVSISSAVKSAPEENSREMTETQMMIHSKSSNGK

| SMILES | IC50 [nM] |
| --- | --- |
| O=C(/C=C/c1ccccc1)N1CCN(Cc2ccc(Cl)cc2)CC1 [Compound C354, (2E)-1-{4-[(4-chlorophenyl)methyl]piperazinyl}-3-phenylprop-2-en-1-one] | < 100 |

Same assay, conditions: cell-based luminescence; 7a,25-OHC final assay concentration 80 nM; 60 minutes incubation; read-out: IC50

| SMILES | IC50 [nM] |
| --- | --- |
| O=C(/C=C/c1ccc(F)cc1)N1CCN(S(=O)(=O)Cc2ccccc2)CC1 [Compound C323, (2E)-3-(4-fluorophenyl)-1-{4-[benzylsulfonyl]piperazinyl}prop-2-en-1-one] | < 100 |
| COC(=O)c1ccc(CN2CCN(C(=O)c3cc4cc(Cl)ccc4[nH]3)CC2)cc1 [Compound C324, methyl 4-({4-[(5-chloroindol-2-yl)carbonyl]piperazinyl}methyl)benzoate] | < 100 |
| O=C(c1cc2cc(Cl)ccc2[nH]1)N1CCN(Cc2ccc(-c3ccccc3)cc2)CC1 [Compound C327, 5-chloroindol-2-yl 4-[(4-phenylphenyl)methyl]piperazinyl ketone] | < 100 |
| Cc1ccc2[nH]c(C(=O)N3CCN(Cc4ccc(Cl)c(Cl)c4)CC3)cc2c1 [Compound C328, 4-[(3,4-dichlorophenyl)methyl]piperazinyl 5-methylindol-2-yl ketone] | < 100 |
| O=C(c1ccc(C(F)(F)F)c(F)c1)N1CCN(C(=O)c2cc3ccc(Br)cc3[nH]2)CC1 [Compound C329, 6-bromoindol-2-yl 4-{[3-fluoro-4-(trifluoromethyl)phenyl]carbonyl}piperazinyl ketone] | < 100 |
| O=C(c1cc2cc(Cl)ccc2[nH]1)N1CCN(Cc2ccc(C(F)(F)F)cc2)CC1 [Compound C331, 5-chloroindol-2-yl 4-{[4-(trifluoromethyl)phenyl]methyl}piperazinyl ketone] | < 100 |
| COc1ccc(CN2CCN(C(=O)/C=C/c3ccccc3)CC2)cc1 [Compound C332, (2E)-1-{4-[(4-methoxyphenyl)methyl]piperazinyl}-3-phenylprop-2-en-1-one] | < 100 |
| CC(C)(C)c1ccc(S(=O)(=O)N2CCN(C(=O)/C=C/c3ccc(Cl)c(Cl)c3)CC2)cc1 [Compound C334, (2E)-3-(3,4-dichlorophenyl)-1-(4-{[4-(tert-butyl)phenyl]sulfonyl}piperazinyl)prop-2-en-1-one] | < 100 |
| O=C(C#Cc1ccc(Br)cc1)N1CCN(C(=O)c2ccc(F)cc2C(F)(F)F)CC1 [Compound C336, 3-(4-bromophenyl)-1-(4-{[4-fluoro-2-(trifluoromethyl)phenyl]carbonyl}piperazinyl)prop-2-yn-1-one] | < 100 |
| CC(C)c1ccc2[nH]c(C(=O)N3CCN(C(c4ccccc4)c4ccccc4)CC3)cc2c1 [Compound C338, 4-(diphenylmethyl)piperazinyl 5-(methylethyl)indol-2-yl ketone] | < 100 |
| Cc1ccc2[nH]c(C(=O)N3CCN(Cc4ccc(Cl)cc4)CC3)cc2c1 [Compound C339, 4-[(4-chlorophenyl)methyl]piperazinyl 5-methylindol-2-yl ketone] | < 100 |
| N#Cc1ccccc1S(=O)(=O)N1CCN(C(=O)/C=C/c2ccc(F)cc2)CC1 [Compound C341, 2-({4-[(2E)-3-(4-fluorophenyl)prop-2-enoyl]piperazinyl}sulfonyl)benzenecarbonitrile] | < 100 |
| O=C(C#Cc1cc(F)cc(F)c1)N1CCN(C(=O)c2ccc(Cl)cc2)CC1 [Compound C343, 3-(3,5-difluorophenyl)-1-{4-[(4-chlorophenyl)carbonyl]piperazinyl}prop-2-yn-1-one] | < 100 |
| O=C(/C=C/c1ccccc1)N1CCN(Cc2ccccc2Br)CC1 [Compound C344, (2E)-1-{4-[(2-bromophenyl)methyl]piperazinyl}-3-phenylprop-2-en-1-one] | < 100 |
| O=C(c1cc2ccccc2[nH]1)N1CCN(CCc2ccccc2)CC1 [Compound C347, indol-2-yl 4-(phenylethyl)piperazinyl ketone] | < 100 |
| O=C(C#Cc1ccc(F)cc1F)N1CCN(C(=O)c2ccc(Cl)cc2)CC1 [Compound C349, 3-(2,4-difluorophenyl)-1-{4-[(4-chlorophenyl)carbonyl]piperazinyl}prop-2-yn-1-one] | < 100 |
| O=C(c1ccc2ccccc2n1)N1CCN(C(c2ccccc2)c2ccccc2)CC1 [Compound C351, 4-(diphenylmethyl)piperazinyl 2-quinolyl ketone] | < 100 |
| O=C(/C=C/c1ccc(F)cc1)N1CCN(S(=O)(=O)c2cccs2)CC1 [Compound C367, (2E)-3-(4-fluorophenyl)-1-[4-(2-thienylsulfonyl)piperazinyl]prop-2-en-1-one] | < 100 |
| O=C(/C=C/c1ccc(Br)cc1F)N1CCN(S(=O)(=O)c2ccc(Br)cc2)CC1 [Compound C377, (2E)-3-(4-bromo-2-fluorophenyl)-1-{4-[(4-bromophenyl)sulfonyl]piperazinyl}prop-2-en-1-one] | < 100 |

More lines, now with the values ahead:

| IC50 [nM] | SMILES |
| --- | --- |
| < 100 | O=C(C#Cc1cccc(Cl)c1)N1CCN(Cc2ccc(C(F)(F)F)cc2)CC1 [Compound C353, 3-(3-chlorophenyl)-1-(4-{[4-(trifluoromethyl)phenyl]methyl}piperazinyl)prop-2-yn-1-one] |
| < 100 | O=C(/C=C/c1ccc(Br)cc1)N1CCCN(S(=O)(=O)/C=C/c2ccccc2)CC1 [Compound C355, (2E)-1-{4-[((1E)-2-phenylvinyl)sulfonyl](1,4-diazaperhydroepinyl)}-3-(4-bromophenyl)prop-2-en-1-one] |
| < 100 | O=C(C#Cc1ccc(Cl)cc1)N1CCN(Cc2ccc(C(F)(F)F)cc2)CC1 [Compound C356, 3-(4-chlorophenyl)-1-(4-{[4-(trifluoromethyl)phenyl]methyl}piperazinyl)prop-2-yn-1-one] |
| < 100 | Cc1cc(F)ccc1OC1CCN(C(=O)c2cc3cc(Cl)ccc3[nH]2)CC1 [Compound C357, 5-chloroindol-2-yl 4-(4-fluoro-2-methylphenoxy)piperidyl ketone] |
| < 100 | COC(=O)c1cccc(CN2CCN(C(=O)c3cc4cc(Cl)ccc4[nH]3)CC2)c1 [Compound C358, methyl 3-({4-[(5-chloroindol-2-yl)carbonyl]piperazinyl}methyl)benzoate] |
| 100 to 500 | COC(=O)c1cccc(C(=O)N2CCN(C(=O)c3cc4cc(Cl)ccc4[nH]3)CC2)c1 [Compound C363, methyl 3-({4-[(5-chloroindol-2-yl)carbonyl]piperazinyl}carbonyl)benzoate] |
| < 100 | O=C(/C=C/c1ccccc1)N1CCN(Cc2cccc(Cl)c2)CC1 [Compound C365, (2E)-1-{4-[(3-chlorophenyl)methyl]piperazinyl}-3-phenylprop-2-en-1-one] |
| 100 to 500 | O=C(c1ccc(Cl)cc1)N1CCN(C(=O)c2cc3ccc(F)cc3[nH]2)CC1 [Compound C366, 4-[(4-chlorophenyl)carbonyl]piperazinyl 6-fluoroindol-2-yl ketone] |
| < 100 | CCCCN1CCN(C(=O)c2cc3cc(Cl)ccc3[nH]2)CC1 [Compound C368, 4-butylpiperazinyl 5-chloroindol-2-yl ketone] |
| < 100 | O=C(C#Cc1ccc(Cl)cc1)N1CCN(Cc2ccc(F)cc2)CC1 [Compound C369, 3-(4-chlorophenyl)-1-{4-[(4-fluorophenyl)methyl]piperazinyl}prop-2-yn-1-one] |
| < 100 | O=C(c1cc2cc(Br)ccc2[nH]1)N1CCN(Cc2ccc(C(F)(F)F)cc2)CC1 [Compound C371, 5-bromoindol-2-yl 4-{[4-(trifluoromethyl)phenyl]methyl}piperazinyl ketone] |
| < 100 | COc1ccc(CN2CCN(C(=O)C#Cc3ccc(Cl)cc3)CC2)cc1 [Compound C372, 3-(4-chlorophenyl)-1-{4-[(4-methoxyphenyl)methyl]piperazinyl}prop-2-yn-1-one] |
| < 100 | O=C(/C=C/c1ccccc1)N1CCN(Cc2ccccc2Cl)CC1 [Compound C374, (2E)-1-{4-[(2-chlorophenyl)methyl]piperazinyl}-3-phenylprop-2-en-1-one] |
| 100 to 500 | O=C(c1ccc(C(F)(F)F)cc1)N1CCN(C(=O)c2cc3ccc(Br)cc3[nH]2)CC1 [Compound C375, 6-bromoindol-2-yl 4-{[4-(trifluoromethyl)phenyl]carbonyl}piperazinyl ketone] |
| < 100 | O=C(c1cc2cc(Cl)ccc2[nH]1)N1CCN(C(=O)c2ccc(F)cc2F)CC1 [Compound C378, 4-[(2,4-difluorophenyl)carbonyl]piperazinyl 5-chloroindol-2-yl ketone] |
| < 100 | O=C(c1cc2sccc2[nH]1)N1CCN(C(c2ccccc2)c2ccccc2)CC1 [Compound C380, 4-(diphenylmethyl)piperazinyl thiopheno[2,3-d]pyrrol-5-yl ketone] |
| < 100 | O=C(c1ccc(Br)cc1)N1CCN(C(=O)c2ccc3ccccc3c2)CC1 [Compound C381, 4-bromophenyl 4-(2-naphthylcarbonyl)piperazinyl ketone] |
| < 100 | O=C(c1ccc(B(O)O)cc1)N1CCN(C(=O)c2cc3ccc(Br)cc3[nH]2)CC1 [Compound C382, 4-(4-(6-bromo-1H-indole-2-carbonyl)piperazine-1-carbonyl)phenylboronic acid] |
| < 100 | O=C(C#Cc1ccc(Cl)cc1)N1CCN(Cc2ccc(Cl)cc2)CC1 [Compound C384, 3-(4-chlorophenyl)-1-{4-[(4-chlorophenyl)methyl]piperazinyl}prop-2-yn-1-one] |
| < 100 | COc1ccc(/C=C/C(=O)N2CCN(S(=O)(=O)c3ccc(C(C)(C)C)cc3)CC2)cc1 [Compound C385, (2E)-1-(4-{[4-(tert-butyl)phenyl]sulfonyl}piperazinyl)-3-(4-methoxyphenyl)prop-2-en-1-one] |
| 100 to 500 | O=C(c1cc2cc(Cl)ccc2[nH]1)N1CCC(Oc2ccc(C(F)(F)F)cc2)CC1 [Compound C390, 5-chloroindol-2-yl 4-[4-(trifluoromethyl)phenoxy]piperidyl ketone] |
| < 100 | O=C(c1ccc(C(F)(F)F)cc1)N1CCN(C(=O)c2cc3ccc(Cl)cc3[nH]2)CC1 [Compound C391, 6-chloroindol-2-yl 4-{[4-(trifluoromethyl)phenyl]carbonyl}piperazinyl ketone] |
